The values that follow come from ChEMBL document CHEMBL5729134, “Apoptosis signal-regulating kinase 1 inhibitors and methods of use thereof” (2022).

Structures are written as SMILES.

The test addresses T1, Mitogen-activated protein kinase kinase kinase 5 (Homo sapiens, UniProt Q99683).
T1 sequence (Q99683 whole entry): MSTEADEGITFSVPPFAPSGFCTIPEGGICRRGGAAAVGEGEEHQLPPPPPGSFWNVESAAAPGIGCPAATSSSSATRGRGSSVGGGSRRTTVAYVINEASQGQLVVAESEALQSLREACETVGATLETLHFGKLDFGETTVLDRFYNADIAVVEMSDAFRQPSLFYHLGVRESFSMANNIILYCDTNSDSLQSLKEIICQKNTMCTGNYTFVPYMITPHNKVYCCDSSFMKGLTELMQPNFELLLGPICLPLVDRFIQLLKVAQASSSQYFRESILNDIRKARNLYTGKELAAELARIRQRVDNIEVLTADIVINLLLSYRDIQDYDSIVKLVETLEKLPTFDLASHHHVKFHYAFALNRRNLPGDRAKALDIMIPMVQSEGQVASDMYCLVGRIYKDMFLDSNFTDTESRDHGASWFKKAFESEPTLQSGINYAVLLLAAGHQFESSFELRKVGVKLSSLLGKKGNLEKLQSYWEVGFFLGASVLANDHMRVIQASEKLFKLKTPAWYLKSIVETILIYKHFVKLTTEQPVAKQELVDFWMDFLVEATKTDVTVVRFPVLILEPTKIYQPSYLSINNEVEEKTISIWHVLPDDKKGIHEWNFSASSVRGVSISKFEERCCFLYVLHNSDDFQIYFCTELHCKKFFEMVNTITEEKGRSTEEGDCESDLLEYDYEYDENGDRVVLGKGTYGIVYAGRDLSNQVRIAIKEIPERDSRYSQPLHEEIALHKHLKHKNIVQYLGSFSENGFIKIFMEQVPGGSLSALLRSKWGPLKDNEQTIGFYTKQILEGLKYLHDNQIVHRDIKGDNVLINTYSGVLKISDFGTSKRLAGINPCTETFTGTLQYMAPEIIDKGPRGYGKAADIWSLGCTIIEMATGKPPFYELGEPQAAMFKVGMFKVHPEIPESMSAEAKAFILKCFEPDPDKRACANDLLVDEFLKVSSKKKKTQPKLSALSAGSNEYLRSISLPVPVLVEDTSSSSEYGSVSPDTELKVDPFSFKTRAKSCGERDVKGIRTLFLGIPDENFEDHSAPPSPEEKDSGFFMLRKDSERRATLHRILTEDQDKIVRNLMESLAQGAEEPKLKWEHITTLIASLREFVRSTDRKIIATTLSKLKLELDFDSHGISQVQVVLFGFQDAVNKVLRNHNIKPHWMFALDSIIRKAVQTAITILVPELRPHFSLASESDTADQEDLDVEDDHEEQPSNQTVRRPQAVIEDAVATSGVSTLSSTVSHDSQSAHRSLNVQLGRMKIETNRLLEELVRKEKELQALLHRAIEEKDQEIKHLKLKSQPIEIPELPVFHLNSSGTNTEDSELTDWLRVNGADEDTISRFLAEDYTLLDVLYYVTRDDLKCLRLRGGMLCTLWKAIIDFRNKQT
The test is described as follows: HTRF KinEASE Assay : ASK1 was purchased from Thermofisher (Catalogue #PV4011), ATP was purchased from Sigma (Catalogue #A7699), HTRF® KinEASE Assay System was obtained from Cisbio (Bedford, Mass.). ½ Area plate was purchased from Perkin Elmer (Catalogue ##6005560). HTRF® KinEASE-STK is a generic method for measuring serine/threonine kinase activities using a time-resolved fluorescence resonance energy transfer (TR-FRET) immunoassay. The IC50 value for each compound was determined in the presence of compound (various concentration from 0 to 10 μM) and a fixed amount of ATP and peptide substrates. The test compound, 1 μM STK3 peptide substrate, and […] are incubated with kinase reaction buffer containing 50 mM HEPES Ph 7.5, 0.01% BRIJ-35, 10 mM MgCl2, and 1 mM EGTA for 30 minutes. 100 μM ATP is added to start kinase reaction and incubated for 3 hours. The STK3-antibody labeled with Eu3+-Cryptate and 125 nM streptavidin-XL665 are mixed in a single addition with stop reagents provided by the Cisbio kit used to stop the kinase reaction. Fluorescence is detected using an Envision Multilabeled 2014 reader from PerkinElmer. The Fluorescence is measured at 615 nm (Cryptate) and 665 nm (XL665) and a ratio of 665 nm/615 nm is calculated for each well. The resulting TR-FRET is proportional to the phosphorylation level. Staurosporine was used as the positive control. IC50 was determined by Xlfit 5.3.
A word on the IC50: it is the concentration that gives 50% inhibition. For `COc1cc2c(cc1C(=O)Nc1cccc(-c3nnnn3[C@H](C)CO)n1)CN(C(=O)c1cnn(C)c1)CC2`, the 50% inhibitory concentration (IC50) is < 1.25 nM.
Regarding `CC(C)n1cnnc1-c1cccc(NC(=O)c2cc3c(cn2)CCN(Cc2ccccn2)C3)n1`, the IC50 is < 1.25 nM.
Take `C[C@H](CO)n1cnnc1-c1cccc(NC(=O)c2cc3c(cc2F)CCN(C(=O)OCCF)C3)n1`: the half-inhibitory concentration (IC50) is < 1.25 nM.
In the case of `COc1cc2c(cc1C(=O)Nc1cccc(-c3nnnn3[C@H](C)CO)n1)CN(S(=O)(=O)C1CC1)CC2` it was < 1.25 nM; in that of `CCOC(=O)N1CCc2cc(OC)c(C(=O)Nc3cccc(-c4nnnn4C(C)C)n3)cc2C1`, < 1.25 nM; in that of `C[C@H](CO)n1cnnc1-c1cccc(NC(=O)c2cc3c(cc2F)CCN(S(=O)(=O)C2CC2)C3)n1`, < 1.25 nM.
Turning to `COc1cc2c(cc1C(=O)Nc1cccc(-c3nnnn3[C@H](C)CO)n1)CN(C(=O)N1CCCC1)CC2`, the IC50 is < 1.25 nM.
On to `COc1cc2c(cc1C(=O)Nc1cccc(-c3nnnn3[C@H](C)CO)n1)CN(C(=O)OCC(F)(F)F)CC2`, for which the IC50 was 1.25 to 10 nM.
In the case of `C[C@H](CO)n1cnnc1-c1cccc(NC(=O)c2cc3c(cc2F)CCN(C(=O)NC2CCCC2)C3)n1` it was < 1.25 nM.
As to `CCOC(=O)N1CCc2cc(OC)c(C(=O)Nc3cccc(-c4nncn4[C@H](C)CO)n3)cc2C1`, the IC50 is < 1.25 nM.
Take `COc1cc2c(cc1C(=O)Nc1cccc(-c3nnnn3C(C)C)n1)CN(C)CC2`: the IC50 is < 1.25 nM.
Regarding `CCNC(=O)N1CCc2cc(OC)c(C(=O)Nc3cccc(-c4nncn4[C@H](C)CO)n3)cc2C1`, the IC50 was < 1.25 nM.
In the case of `CCNC(=O)N1CCc2cc(OC)c(C(=O)Nc3cccc(-c4nncn4C(C)C)n3)cc2C1` it was < 1.25 nM.
As for `COc1cc2c(cc1C(=O)Nc1cccc(-c3nnnn3[C@H](C)CO)n1)CN(C)CC2`, the IC50 was 1.25 to 10 nM.
As for `COc1cc2c(cc1C(=O)Nc1cccc(-c3nnnn3C(C)C)n1)CN(C(=O)OCc1ccccc1)CC2`, the IC50 is < 1.25 nM.
The value for `C[C@H](CO)n1cnnc1-c1cccc(NC(=O)c2cc3c(cc2F)CCN(C(=O)OCC(F)(F)F)C3)n1` was < 1.25 nM; that for `C[C@H](CO)n1cnnc1-c1cccc(NC(=O)c2cc3c(cc2F)CCN(C(=O)c2ccc(F)cc2)C3)n1` was 1.25 to 10 nM.
On to `COc1cc2c(cc1C(=O)Nc1cccc(-c3nncn3[C@H](C)CO)n1)CN(C(=O)OC(C)(C)C)CC2`, for which the IC50 was < 1.25 nM.
Take `CCNC(=O)N1CCc2cc(OC)c(C(=O)Nc3cccc(-c4nnnn4C(C)C)n3)cc2C1`: the IC50 is < 1.25 nM.
`C[C@H](CO)n1cnnc1-c1cccc(NC(=O)c2cc3c(cc2F)CCN(C(=O)OC2CCCC2)C3)n1`: the IC50 is 1.25 to 10 nM.
In the case of `COc1cc2c(cc1C(=O)Nc1cccc(-c3nncn3C(C)C)n1)CN(C(C)C)CC2` it was 1.25 to 10 nM; in that of `CCNC(=O)N1CCc2cc(OC)c(C(=O)Nc3cccc(-c4nnnn4[C@H](C)CO)n3)cc2C1`, 1.25 to 10 nM.
In the case of `C[C@H](CO)n1cnnc1-c1cccc(NC(=O)c2cc3c(cc2F)CCN(S(=O)(=O)CCC(F)(F)F)C3)n1` it was < 1.25 nM.
In the case of `COc1cc2c(cc1C(=O)Nc1cccc(-c3nncn3[C@H](C)CO)n1)CN(S(=O)(=O)C1CC1)CC2` it was 1.25 to 10 nM.
In the case of `COc1cc2c(cc1C(=O)Nc1cccc(-c3nnnn3C(C)C)n1)CN(C(C)C)CC2`, the IC50 was 1.25 to 10 nM.
In the case of `C[C@H](CO)n1cnnc1-c1cccc(NC(=O)c2cc3c(cn2)CCN(S(=O)(=O)N(C)C)C3)n1` it was < 1.25 nM; in that of `CC(C)n1cnnc1-c1cccc(NC(=O)c2cc3c(cc2F)CCN(c2ncccn2)C3)n1`, < 1.25 nM; in that of `CCNC(=O)N1CCc2cnc(C(=O)Nc3cccc(-c4nncn4[C@H](C)CO)n3)cc2C1`, 1.25 to 10 nM.
With `CCOC(=O)N1CCc2cnc(C(=O)Nc3cccc(-c4nncn4[C@H](C)CO)n3)cc2C1`, the IC50 is < 1.25 nM.
As for `C[C@H](CO)n1cnnc1-c1cccc(NC(=O)c2cc3c(cn2)CCN(C(=O)OCC(F)(F)F)C3)n1`, the IC50 was < 1.25 nM.
The value for `COc1cc2c(cc1C(=O)Nc1cccc(-c3nnnn3[C@H](C)CO)n1)CN(S(=O)(=O)CCC(F)(F)F)CC2` was 1.25 to 10 nM.
As for `CC(C)N1CCc2cc(F)c(C(=O)Nc3cccc(-c4nncn4[C@H](C)CO)n3)cc2C1`, the IC50 is < 1.25 nM.
As to `COc1cc2c(cc1C(=O)Nc1cccc(-c3nnnn3C(C)C)n1)CN(C(=O)OCC(F)(F)F)CC2`, the half-inhibitory concentration (IC50) is < 1.25 nM.
Consider `C[C@H](CO)n1cnnc1-c1cccc(NC(=O)c2cc3c(cn2)CCN(S(=O)(=O)c2ccccc2)C3)n1`, for which the IC50 was < 1.25 nM.
As for `COc1cc2c(cc1C(=O)Nc1cccc(-c3nncn3[C@H](C)CO)n1)CN(C(=O)N1CCCC1)CC2`, the IC50 is < 1.25 nM.
The value for `COc1cc2c(cc1C(=O)Nc1cccc(-c3nnnn3[C@H](C)CO)n1)CN(C(=O)OCc1ccccc1)CC2` was < 1.25 nM.
Take `COc1cc2c(cc1C(=O)Nc1cccc(-c3nnnn3[C@H](C)CO)n1)CN(C(=O)c1ccc(F)cc1)CC2`: the IC50 is < 1.25 nM.
The value for `CC(C)COC(=O)N1CCc2cc(F)c(C(=O)Nc3cccc(-c4nncn4[C@H](C)CO)n3)cc2C1` was 1.25 to 10 nM.
For `COc1cc2c(cc1C(=O)Nc1cccc(-c3nncn3[C@H](C)CO)n1)CN(C(=O)OCC(F)(F)F)CC2`, the IC50 was 1.25 to 10 nM.
The value for `COc1cc2c(cc1C(=O)Nc1cccc(-c3nncn3C(C)C)n1)CN(C(=O)c1ccc(F)cc1)CC2` was < 1.25 nM.
The value for `C[C@H](CO)n1cnnc1-c1cccc(NC(=O)c2cc3c(cc2F)CCN(C(=O)C(C)(C)C)C3)n1` was 1.25 to 10 nM.
In the case of `COc1cc2c(cc1C(=O)Nc1cccc(-c3nncn3[C@H](C)CO)n1)CN(C)CC2` it was < 1.25 nM; in that of `COc1cc2c(cc1C(=O)Nc1cccc(-c3nncn3[C@H](C)CO)n1)CN(C(=O)c1ccc(F)cc1)CC2`, 1.25 to 10 nM; in that of `COc1cc2c(cc1C(=O)Nc1cccc(-c3nnnn3C(C)C)n1)CN(C(=O)OC(C)C)CC2`, < 1.25 nM.
With `COc1cc2c(cc1C(=O)Nc1cccc(-c3nnnn3[C@H](C)CO)n1)CN(C(=O)c1cn(C3CC3)cn1)CC2`, the IC50 was 1.25 to 10 nM.
Regarding `CC(C)CN1CCc2cnc(C(=O)Nc3cccc(-c4nncn4[C@H](C)CO)n3)cc2C1`, the IC50 was 1.25 to 10 nM.
In the case of `CCOC(=O)N1CCc2cnc(C(=O)Nc3cccc(-c4nncn4C(C)C)n3)cc2C1`, the IC50 was 1.25 to 10 nM.
In the case of `CC(C)n1cnnc1-c1cccc(NC(=O)c2cc3c(cn2)CCN(C(=O)c2ccc(F)cc2)C3)n1` it was 1.25 to 10 nM; in that of `C[C@H](CO)n1cnnc1-c1cccc(NC(=O)c2cc3c(cn2)CCN(Cc2ccccn2)C3)n1`, < 1.25 nM.
The value for `CCOC(=O)N1CCc2cc(F)c(C(=O)Nc3cccc(-c4nncn4[C@H](C)CO)n3)cc2C1` was < 1.25 nM; that for `COc1cc2c(cc1C(=O)Nc1cccc(-c3nnnn3C(C)C)n1)CN(S(=O)(=O)C1CC1)CC2` was < 1.25 nM.
For the compound `C[C@H](CO)n1cnnc1-c1cccc(NC(=O)c2cc3c(cc2F)CCN(C(=O)OC2CC2)C3)n1`, the IC50 was 1.25 to 10 nM.
The value for `COc1cc2c(cc1C(=O)Nc1cccc(-c3nncn3C(C)C)n1)CN(C)CC2` was < 1.25 nM.
`COc1cc2c(cc1C(=O)Nc1cccc(-c3nnnn3[C@H](C)CO)n1)CN(C(=O)OC(C)C)CC2`: the IC50 is < 1.25 nM.
The value for `C[C@H](CO)n1cnnc1-c1cccc(NC(=O)c2cc3c(cc2F)CCN(C)C3)n1` was 1.25 to 10 nM.
In the case of `CC(C)n1cnnc1-c1cccc(NC(=O)c2cc3c(cn2)CCN(S(=O)(=O)c2ccccc2)C3)n1` it was 1.25 to 10 nM; in that of `COc1cc2c(cc1C(=O)Nc1cccc(-c3nnnn3C(C)C)n1)CN(C(=O)c1ccc(F)cc1)CC2`, < 1.25 nM.
